{"source": "paper PMC2896895", "about": "(Cell cycle (Georgetown, Tex.), 2009)", "key": {"PSA levels": {"system": "PSA levels", "conditions": "Phase I clinical trial, castration resistant PCa; cited from earlier work"}, "AR LBD": {"system": "AR LBD", "conditions": "non-competitive antagonists; cited from earlier work"}, "CWR22R cells": {"system": "CWR22R cells", "assay": "Colony formation / growth assay, CWR22R", "type": "cell-based, human"}, "[1]": {"system": "AR-dependent luciferase reporter (ARE-Luc) in CWR22R cells", "assay": "AR-dependent luciferase reporter", "type": "cell-based, human", "conditions": "10μM of compounds, 24h, vs 0.1% DMSO"}, "[2]": {"system": "Prostate Specific Antigen (PSA) expression in C4-2 cells", "assay": "PSA secretion by C4-2 cells", "type": "cell-based, human", "conditions": "10μM of compounds, 72h, PSA in medium vs 0.1% DMSO"}, "C4-2 cells": {"system": "C4-2 cells", "assay": "Colony formation assay, C4-2", "type": "cell-based, human"}, "LNCaP cells": {"system": "LNCaP cells", "assay": "Colony formation assay, LNCaP", "type": "cell-based, human"}, "[3]": {"conditions": "number of colonies, vs 0.1% DMSO"}}, "data": [{"smiles": "CNC(=O)c1ccc(N2C(=S)N(c3ccc(C#N)c(C(F)(F)F)c3)C(=O)C2(C)C)cc1F", "note": "[MDV3100]", "values": [{"measurement": "PSA levels in patients", "setting": "PSA levels", "result": "efficacy in decreasing PSA levels"}]}, {"smiles": "CNC(=O)c1ccc(N2C(=S)N(c3ccc(C#N)c(C(F)(F)F)c3)C(=O)C23CCC3)cc1F", "note": "[RD162]", "values": [{"measurement": "binding to the AR LBD", "setting": "AR LBD", "result": "bind with high affinity"}]}, {"smiles": "CC(O)(CS(=O)(=O)c1ccc(F)cc1)C(=O)Nc1ccc(C#N)c(C(F)(F)F)c1", "note": "(stereo not shown) [Bic, bicalutamide]", "values": [{"measurement": "growth of androgen-independent CWR22R cells", "setting": "CWR22R cells; colony formation, 10μM", "result": "did not suppress growth"}, {"measurement": "Survival of cells in the presence of 10μM of a compound (DMSO=100%), CWR22R", "setting": "CWR22R cells; [3]", "result": 100, "unit": "%"}, {"measurement": "Activity of ARE-Luc in CWR22R11 cells", "setting": "[1]", "result": "43 % of DMSO"}, {"measurement": "PSA secretion in C4-2 cells", "setting": "[2]", "result": "0 % of DMSO"}, {"measurement": "growth of androgen-independent C4-2 cells", "setting": "C4-2 cells; colony formation, 10μM", "result": "did not suppress growth"}, {"measurement": "Survival of cells in the presence of 10μM of a compound (DMSO=100%), C4-2", "setting": "C4-2 cells; [3]", "result": 91, "unit": "%"}, {"measurement": "growth of androgen-sensitive LNCaP cells", "setting": "LNCaP cells; colony formation, 10μM", "result": "suppressed growth"}, {"measurement": "Survival of cells in the presence of 10μM of a compound (DMSO=100%), LNCaP", "setting": "LNCaP cells; [3]", "result": 19, "unit": "%"}]}]}
